The values that follow come from paper PMC10975434 (Pharmaceutics, 2024).

Series [1] has as its target T1, UGT2B7 (Homo sapiens, UniProt P16662).
T1 sequence (P16662 24-529): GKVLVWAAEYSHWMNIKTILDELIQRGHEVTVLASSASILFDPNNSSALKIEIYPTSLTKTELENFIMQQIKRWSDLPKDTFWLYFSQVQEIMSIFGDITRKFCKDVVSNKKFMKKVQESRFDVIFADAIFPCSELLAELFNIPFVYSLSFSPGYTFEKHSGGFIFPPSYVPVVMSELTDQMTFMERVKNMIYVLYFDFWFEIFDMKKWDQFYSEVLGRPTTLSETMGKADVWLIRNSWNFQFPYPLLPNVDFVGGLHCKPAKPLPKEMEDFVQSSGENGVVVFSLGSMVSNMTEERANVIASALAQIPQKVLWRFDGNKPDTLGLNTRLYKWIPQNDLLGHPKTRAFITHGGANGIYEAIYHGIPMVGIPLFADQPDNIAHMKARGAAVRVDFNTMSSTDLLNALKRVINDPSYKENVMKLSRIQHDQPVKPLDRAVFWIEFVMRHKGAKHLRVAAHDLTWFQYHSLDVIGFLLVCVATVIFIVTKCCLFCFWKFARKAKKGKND
Kind of series: IC50 determination and calculated Ki, morphine glucuronidation in HLM.

Series [2] has as its target T2, UGT2B7 (Homo sapiens, UniProt P16662, Y268H).
T2 sequence (P16662 24-529 Y268H): T1 sequence (P16662 24-529) with Y245H

The nature of series [3]: Estimated unbound maximum hepatic inlet concentration used for the static model. The note with it: read-out: Cmax,hepatic inlet,u, estimated from Cmax of Bansal et al., 2022 [56]. How it is done:
(8) [I]h=fu,p×Cmax+Fa ×Fg×Ka×Dose/Qh ×Rb
For the static mechanistic modeling, hepatic blood flow (Qh) and enterocyte blood flow (Qen) were set to 1500 mL/min and 300 mL/min, respectively, and the blood-to-plasma concentration ratio (RB) was set to 0.4 [55].
C௠௔௫ ,௛௘௣௔௧௜௖ ௜௡௟௘௧ ,௨ ൌ f௨,௣ ൈ ቀC௠௔௫ ൅ ிೌ ൈ ி೒ ൈ ௄ೌ ൈ஽௢௦௘ொ೓ ൈ ோ್ቁ, where fu,p (unbound fraction in plasma) wa s set

Series [4] has as its target T2, UGT2B7. As to the kind of experiment: Inhibition screening of morphine glucuronidation in rUGT2B7-overexpressing HEK293 cell microsomes. As to conditions: rUGT-overexpressing microsomes and HLM.
For series [5], the target named is T2, UGT2B7. As to the kind of experiment: IC50 determination, morphine glucuronidation in rUGT2B7-overexpressing HEK293 cell microsomes.
Series [6] concerns the target T1, UGT2B7.
For series [7] the following is noted: cited from earlier work.
Series [8] has as its target T1, UGT2B7. Kind of series: Inhibition screening of morphine glucuronidation in pooled human liver microsomes (HLM). The note with it: 100 µM cannabinoid.
Series [9] concerns the target T2, UGT2B7. Kind of series: in vitro.
For series [10] the following is noted: cited from earlier work. The source holds these as a separate data set.
Series [11] deals with UGT2B7. More on the design: method as in PMID 9715839. As to conditions: coadministration of zidovudine (AZT) and methadone; cited from earlier work.
The mark [12] stands for this setting: read-out: Calculated Ki, Morphine-3-Glucuronide, Ki=IC50/2 assuming competitive inhibition.
The mark [13] stands for this setting: read-out: Calculated Ki, Morphine-6-Glucuronide, Ki=IC50/2 assuming competitive inhibition.
The mark [14] stands for this setting: read-out: Calculated Ki,u, Morphine-3-Glucuronide, Ki corrected with fu,inc.
[15] abbreviates: read-out: Calculated Ki,u, Morphine-6-Glucuronide, Ki corrected with fu,inc.
The mark [16] stands for this setting: read-out: IC50,u, Morphine-3-Glucuronide formation, corrected for non-specific binding with fu,inc (11-OH-THC fu,inc as surrogate for 11-COOH-THC and 7-OH-CBD).
The mark [17] stands for this setting: read-out: IC50,u, Morphine-6-Glucuronide formation, corrected for non-specific binding with fu,inc (11-OH-THC fu,inc as surrogate for 11-COOH-THC and 7-OH-CBD).

Numbering of substitutions follows the chain as printed. Where “and” joins values, the source holds several entries; their conditions need not be identical. Equal entries are not always repeated. Where two headings read alike, the source gives them in different places.

A word on the IC50: it is the concentration at which inhibition is half-maximal. The Cmax is the maximum level reached in the sampled fluid or tissue. The inhibition is the drop in the measured response relative to a control, in per cent.

“11-hydroxy-Δ^9-tetrahydrocannabinol [11-OH-THC]”: the Ki was 8.82 ± 8.42 µM in [1] (setting [12]), 6.61 ± 5.02 µM in [1] (setting [13]), 0.82 ± 0.79 µM in [1] (setting [14]) and 0.62 ± 0.47 µM in series [1] (setting [15]). For the same molecule, the IC50 is 1.7 ± 1.6 µM in [1] (setting [16]); 1.2 ± 0.95 µM in [1] (setting [17]); 12 ± 3.5 µM in series [2]; 0.96 ± 0.27 µM in [5] (setting [16]); 0.96 ± 0.28 µM in series [5] (setting [17]); 18 µM and 13 µM in series [6]. The Cmax in series [3] (THC dose 20 mg, Oral) was 20 nM; in series [3] (THC dose 25 mg, Inhalation), 10 nM; in series [3] (THC dose 70 mg, Inhalation) it was 30 nM; in series [3] (THC dose 100 mg, Inhalation), 50 nM; in series [3] (THC dose 130 mg, Oral), 100 nM; in series [3] (THC dose 160 mg, Oral) it was 120 nM. In [4], the “inhibition of UGT2B7-mediated morphine metabolism (overall, in words)” value (“inhibition … (overall, in words)” for short) is “strong inhibition”. Moreover, the “unbound fraction (fu,inc)” value is reported as 0.094 in series [7] (HLM) and 0.078 in series [7] (rUGT-overexpressing microsomes). For the same molecule, the “inhibition of M3G and M6G formation in HLM (in words)” value (shortened to “inhibition of M3G and M6G formation”) in series [8] was “significant inhibition”.

Turning to `C=C(C)[C@@H]1CCC(C(=O)O)=C[C@H]1c1c(O)cc(CCCCC)cc1O` [7-COOH-CBD, 7-carboxy-cannabidiol], the “inhibition of M3G and M6G formation” value in series [8] is listed as “weak to moderate inhibition”.

On to `C=C(C)[C@@H]1CCC(CO)=C[C@H]1c1c(O)cc(CCCCC)cc1O` [7-OH-CBD, 7-hydroxy-cannabidiol], for which the Ki in series [1] (setting [12]) is 8.59 ± 3.05 µM; in [1] (setting [13]), 3.99 ± 2.54 µM; in series [1] (setting [14]), 0.81 ± 0.29 µM; in series [1] (setting [15]), 0.38 ± 0.12 µM. Besides, the IC50 in series [1] (setting [16]) was 1.6 ± 0.57 µM; in series [1] (setting [17]), 0.75 ± 0.24 µM; in series [2], 38 µM and 39 µM; in series [5] (setting [16]) it was 3 ± 2.1 µM; in [5] (setting [17]), 3 ± 0.7 µM. In addition, the Cmax was 30 nM in series [3] (CBD dose 70 mg, Oral); 340 nM in series [3] (CBD dose 700 mg, Oral); 980 nM in series [3] (CBD dose 2000 mg, Oral). The “inhibition … (overall, in words)” value in series [4] is recorded as “strong inhibition”. In addition, the “inhibition of M3G and M6G formation” value in series [8] is given as “significant inhibition”.

On to `CCCCCc1cc(O)c2c(c1)OC(C)(C)[C@@H]1CCC(C(=O)O)=C[C@@H]21` [11-COOH-THC, 11-nor-9-carboxy-Δ^9-tetrahydrocannabinol], for which the Ki in [1] (setting [12]) was 91.6 ± 18.5 µM; in [1] (setting [13]), 52.1 ± 8.16 µM; in series [1] (setting [14]), 8.61 ± 1.74 µM; in series [1] (setting [15]), 4.89 ± 0.77 µM. The half-inhibitory concentration (IC50) is 17 ± 3.5 µM in series [1] (setting [16]); 9.8 ± 1.5 µM in series [1] (setting [17]); 47 µM and 55 µM in series [2]; 3.7 ± 1.2 µM in series [5] (setting [16]); 4.3 ± 1.2 µM in series [5] (setting [17]); 184 µM and 104 µM in [6]. The Cmax is 190 nM in series [3] (THC dose 20 mg, Oral); 70 nM in series [3] (THC dose 25 mg, Inhalation); 180 nM in [3] (THC dose 70 mg, Inhalation); 260 nM in series [3] (THC dose 100 mg, Inhalation); 1220 nM in series [3] (THC dose 130 mg, Oral); 1500 nM in series [3] (THC dose 160 mg, Oral). In [4], the “inhibition … (overall, in words)” value is reported as “more moderate inhibition”. The “inhibition of M3G and M6G formation” value in series [8] was “weak to moderate inhibition”.

In the case of `CCCCCc1cc(O)c2c(c1)OC(C)(C)c1ccc(C)cc1-2` [CBN, cannabinol], the inhibition at 100 µM in series [9] (microsomes of HEK293 cells overexpressing recombinant UGT2B7, probe morphine […] (morphine-3-glucuronide formation)) stood at 10%; in series [9] (microsomes of HEK293 cells overexpressing recombinant UGT2B7, probe morphine […] (morphine-6-glucuronide formation)), 33%. In [4], the “inhibition … (overall, in words)” value is “no significant inhibitory activity”. In addition, the “inhibition of M3G and M6G formation” value in series [8] is “did not exhibit appreciable inhibition”.

Regarding `CCCCCc1cc(O)c2c(c1)OC(C)(C)[C@@H]1CCC(C)=C[C@@H]21` [THC, Δ^9-tetrahydrocannabinol, reference compound], the Ki was 12.2 ± 2.77 µM in series [1] (setting [12]), 7.69 ± 1.63 µM in [1] (setting [13]) and 0.37 ± 0.08 µM in series [1] (setting [15]). Also, the IC50 in [1] (setting [16]) was 1.2 ± 0.27 µM; in series [1] (setting [17]), 0.74 ± 0.16 µM; in [5] (setting [16]), 0.85 ± 0.34 µM; in series [5] (setting [17]), 0.34 ± 0.07 µM; in series [6], 24 µM and 15 µM. In addition, the Cmax in series [3] (THC dose 20 mg, Oral) was 30 nM; in [3] (THC dose 25 mg, Inhalation) it was 250 nM; in series [3] (THC dose 70 mg, Inhalation), 690 nM; in [3] (THC dose 100 mg, Inhalation) it was 990 nM; in [3] (THC dose 130 mg, Oral) it was 200 nM; in series [3] (THC dose 160 mg, Oral), 240 nM. Moreover, in series [4], the “inhibition … (overall, in words)” value is on record as “strong inhibition”. For the same molecule, the “Cmax,u” value in [10] (after consumption) is 20 nM. In series [10] (value set for the static model, ref Cox et al., 2019 [45]), the “ka (first-order absorption rate constant)” value was 0.02. The “BP (blood to plasma ratio)” value in [10] (value set for the static model, ref Schwilke et al., 2009 [55]) was 0.4. Moreover, the “unbound fraction (fu,inc)” value in series [7] (HLM) is reported as 0.048. The “inhibition of M3G and M6G formation” value in series [8] is “significant inhibition”.

Consider `Cc1cn([C@H]2C[C@H](N=[N+]=[N-])[C@@H](CO)O2)c(=O)[nH]c1=O` [zidovudine], for which, in series [11], the “increase in zidovudine exposure” value is reported as 1.4 fold.
